In US12473282B2, “Biphenyl fluorine double bond derivative, preparation method therefor, and pharmaceutical application thereof” (Abbisko Therapeutics Co., Ltd., priority 2020, dated 2025):

Tests used:
[1] = target: interaction between PD-1 and PD-L1 (Homo sapiens (Human), UniProt Q9NZQ7); assay: PD1-PDL1 HTRF binding activity test (Cisbio PD-1/PD-L1 binding assay kit)
Method: I. PD1-PDL1 HTRF Binding Activity Test
The effect of compounds of the examples of the present invention on the interaction between PD-1 and PD-L1 was determined by the PD-1/PD-L1 binding assay kit from Cisbio (#64ICP01PEG or 64ICP01PEH). The detailed experimental process was as follows: • 1. Pre-diluted compound solution, 4 μL of Tag1-PD-L1 and 4 μL of Tag2-PD1 were added to each well of a 384-well plate; • 2. After the mixture was incubated at room temperature for 15 min, 5 μL of anti-Tag1-Eu3+ antibody and 5 μL of anti-Tag2-XL665 antibody were then added; • 3. After incubated for 2 hrs at room temperature or overnight at 4° C., plates were read on Envision of Pelkin Elmer; and readings at 665 nm and 620 nm were recorded, and the ratio of the two readings was taken as a reading for each well; • 4. The reading of each well after compound treatment was compared with the reading of DMSO treated wells to obtain the percent inhibition of the compound; • 5. IC50 values of compounds and positive compounds of the examples of the present invention were determined by non-linear regression analysis of percent inhibition at different compound concentrations. II. Jurkat Reporter Gene Cellular Assay

[2] = Jurkat reporter gene cellular assay; format: cell-based; conditions: Homo sapiens; Jurkat/NF-κB-luc/PD1 + Raji-PD-L1 coculture, OKT3 1 μg/mL, 6 hrs, activation fold; read-out: Cell Activity EC50
Method: The effect of compounds of the examples of the present invention and positive compounds on the interaction between PD-1 and PD-L1 expressed on cell surfaces, and the related influence on T cell functions, were determined by a Jurkat reporter gene cellular assay.
Briefly, the reporter gene plasmid of NF-κB-luc and the plasmid of human PD-1 were transfected into Jurkat cells to establish a stably transfected cell line capable of stably expressing both PD-1 and NF-κB-Luc reporter genes; the expression level of PD-1 on the cell surface was confirmed by flow cytometry; and the expression of the reporter gene was confirmed via the response of the reporter gene stimulated by OKT-3 and Raiji cells.
In addition, the plasmid of human PD-L1 was transfected into Raji cells to obtain a cell line capable of stably expressing PD-L1. Jurkat/NF-κB-luc/PD1 cells and Raji-PD-L1 cells were then cocultured and stimulated with OKT-3. On this basis, the compounds were added, and the enhancement of the signal pathway of T cell activation by the inhibitory effect of the compounds on the interaction between PD-1 and PD-L1 was evaluated by readings of reporter gene responses. The specific experimental process was as follows: • 1. 30 μL of compound or antibody solution was added to each well of a white 96-well plate (corning, 3610) at different diluted concentrations, and 10 μL of OKT3 (Biolegend, 317326) was then added (the final concentration of OKT3: 1 μg/mL); • 2. 20 μL of Raji-PD-L1 cell suspension was added to each well with 5*10^4 cells for each well, and was incubated in an incubator for 20 min; • 3. 20 μL of Jurkat/NF-Kb-luc/PD-1 cell suspension was added to each well with 5*10^4 cells for each well, and well mixed, and 6 hrs later, Bright-glo (Promega, E2620) was applied and plates were read on Envision; • 4. The reading of each well treated with the compound was compared with the reading of each well treated with DMSO to obtain the activation fold of the compound; • 5. EC50 values of compounds and positive compounds of the examples of the present invention were determined by non-linear regression analysis of activation folds at different compound concentrations.

interaction between PD-1 and PD-L1, sequence (Q9NZQ7 19-238): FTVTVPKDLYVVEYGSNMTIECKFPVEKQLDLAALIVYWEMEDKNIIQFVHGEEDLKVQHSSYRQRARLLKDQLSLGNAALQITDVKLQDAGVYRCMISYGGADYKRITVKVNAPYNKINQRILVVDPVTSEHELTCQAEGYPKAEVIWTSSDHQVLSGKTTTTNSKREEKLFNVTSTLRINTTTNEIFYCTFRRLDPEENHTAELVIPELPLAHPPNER

Row | SMILES | IC50 [1] [µM] | EC50 [2] [µM]
1 | COc1cc(/C(F)=C/c2cccc(-c3cccc(NC(=O)c4nc5c(n4C)CCN(CCC46CCC(C(=O)O)(CC4)C6)C5)c3Cl)c2Cl)ncc1CN1CC[C@H](O)C1 [Example 59, (S,Z)-4-(2-(2-((2,2′-dichloro-3′-(2-fluoro-2-(5-((3-hydroxypyrrolidin-1-yl)methyl)-4-methoxypyridin-2-yl)vinyl)-[1,1′-biphenyl]-3-yl)carbamoyl)-1-methyl-1,4,6,7-tetrahydro-5H-imidazo[4,5-c]pyridin-5-yl)ethyl)bicyclo[2.2.1]heptane-1-carboxylic acid] | 0.000299 | 0.0475
2 | COc1cc(/C(F)=C/c2cccc(-c3cccc(NC(=O)c4nc5c(n4C)CCN(CCC46CCC(C(=O)O)(CC4)C6)C5)c3Cl)c2Cl)ncc1CNCCO [Example 16, (Z)-4-(2-(2-((2,2′-dichloro-3′-(2-fluoro-2-(5-(((2-hydroxyethyl)amino)methyl)-4-methoxypyridin-2-yl)vinyl)-[1,1′-biphenyl]-3-yl)carbamoyl)-1-methyl-1,4,6,7-tetrahydro-5H-imidazo[4,5-c]pyridin-5-yl)ethyl)bicyclo[2.2.1]heptane-1-carboxylic acid] | 0.000191 | 0.133
3 | Cn1c(C(=O)Nc2cccc(-c3cccc(/C=C(\F)c4cc(C5CC5)c(CN5CC(C)(O)C5)cn4)c3Cl)c2Cl)nc2c1CCN(CCC13CCC(C(=O)O)(CC1)C3)C2 [Example 36, (Z)-4-(2-(2-((2,2′-dichloro-3′-(2-(4-cyclopropyl-5-((3-hydroxy-3-methylazetidin-1-yl)methyl)pyridin-2-yl)-2-fluorovinyl)-[1,1′-biphenyl]-3-yl)carbamoyl)-1-methyl-1,4,6,7-tetrahydro-5H-imidazo[4,5-c]pyridin-5-yl)ethyl)bicyclo[2.2.1]heptane-1-carboxylic acid] | 0.000306 | 3.13
4 | COc1cc(/C(F)=C/c2cccc(-c3cccc(NC(=O)c4nc5c(n4C)CCN(CCC46CCC(C(=O)O)(CC4)C6)C5)c3Cl)c2Cl)ncc1CNC(C)(C)C [Example 50, (Z)-4-(2-(2-((3′-(2-(5-((tert-butylamino)methyl)-4-methoxypyridin-2-yl)-2-fluorovinyl)-2,2′-dichloro-[1,1′-biphenyl]-3-yl)carbamoyl)-1-methyl-1,4,6,7-tetrahydro-5H-imidazo[4,5-c]pyridin-5-yl)ethyl) bicyclo[2.2.1]heptane-1-carboxylic acid] | 0.000731 | 0.054
5 | COc1cc(/C(F)=C/c2cccc(-c3cccc(NC(=O)c4nc5c(n4C)CCN(CCC46CCC(C(=O)O)(CC4)C6)C5)c3Cl)c2Cl)ncc1CN1CC[C@@H](O)C1 [Example 39, (R,Z)-4-(2-(2-((2,2′-dichloro-3′-(2-fluoro-2-(5-((3-hydroxypyrrolidin-1-yl)methyl)-4-methoxypyridin-2-yl)vinyl)-[1,1′-biphenyl]-3-yl)carbamoyl)-1-methyl-1,4,6,7-tetrahydro-5H-imidazo[4,5-c]pyridin-5-yl)ethyl)bicyclo[2.2.1]heptane-1-carboxylic acid] | 0.000238 | 0.0647
6 | Cc1c(/C=C(\F)c2nc3c(n2C)CCN(C[C@@H](C)O)C3)cccc1-c1cccc(NC(=O)c2nc3c(n2C)CCN(CCC24CCC(C(=O)O)(CC2)C4)C3)c1C [Example 3, (R,Z)-4-(2-(2-((3′-(2-fluoro-2-(5-(2-hydroxypropyl)-1-methyl-4,5,6,7-tetrahydro-1H-imidazo[4,5-c]pyridin-2-yl)vinyl)-2,2′-dimethyl-[1,1′-biphenyl]-3-yl)carbamoyl)-1-methyl-1,4,6,7-tetrahydro-5H-imidazo[4,5-c]pyridin-5-yl)ethyl)bicyclo[2.2.1]heptane-1-carboxylic acid] |  | 0.0952
7 | COc1cc(/C(F)=C/c2cccc(-c3cccc(NC(=O)c4nc5c(n4C)CCN(CCC46CCC(C(=O)O)(CC4)C6)C5)c3Cl)c2Cl)ncc1CN1CCO[C@H](CO)C1 [Example 70, (S,Z)-4-(2-(2-((2,2′-dichloro-3′-(2-fluoro-2-(5-((2-(hydroxymethyl)morpholino)methyl)-4-methoxypyridin-2-yl)vinyl)-[1,1′-biphenyl]-3-yl)carbamoyl)-1-methyl-1,4,6,7-tetrahydro-5H-imidazo[4,5-c]pyridin-5-yl)ethyl)bicyclo[2.2.1]heptane-1-carboxylic acid] |  | 0.128
8 | COc1cc(/C(F)=C/c2cccc(-c3cccc(NC(=O)c4nc5c(n4C)CCN(CCC46CCC(C(=O)O)(CC4)C6)C5)c3Cl)c2Cl)ncc1CN1CC[C@@H](C)C1 [Example 56, (R,Z)-4-(2-(2-((2,2′-dichloro-3′-(2-fluoro-2-(4-methoxy-5-((3-methylpyrrolidin-1-yl)methyl)pyridin-2-yl)vinyl)-[1,1′-biphenyl]-3-yl)carbamoyl)-1-methyl-1,4,6,7-tetrahydro-5H-imidazo[4,5-c]pyridin-5-yl)ethyl)bicyclo[2.2.1]heptane-1-carboxylic acid] |  | 0.0614
9 | COc1cc(/C(F)=C/c2cccc(-c3cccc(NC(=O)c4nc5c(n4C)CCN(CCC46CCC(C(=O)O)(CC4)C6)C5)c3Cl)c2Cl)ncc1CN1CC(O)C1 [Example 42, (Z)-4-(2-(2-((2,2′-dichloro-3′-(2-fluoro-2-(5-((3-hydroxyazetidin-1-yl)methyl)-4-methoxypyridin-2-yl)vinyl)-[1,1′-biphenyl]-3-yl)carbamoyl)-1-methyl-1,4,6,7-tetrahydro-5H-imidazo[4,5-c]pyridin-5-yl)ethyl)bicyclo[2.2.1]heptane-1-carboxylic acid] |  | 0.119
10 | COc1cc(/C(F)=C/c2cccc(-c3cccc(NC(=O)c4nc5c(n4C)CCN(CCC46CCC(C(=O)O)(CC4)C6)C5)c3Cl)c2Cl)ncc1CN1CC[C@@](C)(O)C1 [Example 71, (R,Z)-4-(2-(2-((2,2′-dichloro-3′-(2-fluoro-2-(5-((3-hydroxy-3-methylpyrrolidin-1-yl)methyl)-4-methoxypyridin-2-yl)vinyl)-[1,1′-biphenyl]-3-yl)carbamoyl)-1-methyl-1,4,6,7-tetrahydro-5H-imidazo[4,5-c]pyiidin-5-yl)ethyl)bicyclo[2.2.1]heptane-1-carboxylic acid] |  | 0.0421
11 | Cc1c(/C=C(\F)c2nc3c(n2C)CCN(CCC24CCC(C(=O)O)(CC2)C4)C3)cccc1-c1cccc(NC(=O)c2nc3c(n2C)CCN(C(C)C)C3)c1C [Example 5, (Z)-4-(2-(2-(1-fluoro-2-(3′-(5-isopropyl-1-methyl-4,5,6,7-tetrahydro-1H-imidazo[4,5-c]pyridine-2-carboxamido)-2,2′-dimethyl-[1,1′-biphenyl]-3-yl)vinyl)-1-methyl-1,4,6,7-tetrahydro-5H-imidazo[4,5-c]pyridin-5-yl)ethyl)bicyclo[2.2.1]heptane-1-carboxylic acid] |  | 0.719
12 | COc1cc(/C(F)=C/c2cccc(-c3cccc(NC(=O)c4nc5c(n4C)CCN(CCC46CCC(C(=O)O)(CC4)C6)C5)c3Cl)c2Cl)ncc1CN1CCC2(CC(O)C2)C1 (stereo not drawn) [Example 62, (Z)-4-(2-(2-((2,2′-dichloro-3′-(2-fluoro-2-(5-((2-hydroxy-6-azaspiro [3.4]octan-6-yl)methyl)-4-methoxypyridin-2-yl)vinyl)-[1,1′-biphenyl]-3-yl)carbamoyl)-1-methyl-1,4,6,7-tetrahydro-5H-imidazo[4,5-c]pyridin-5-yl)ethyl)bicyclo[2.2.1]heptane-1-carboxylic acid] |  | 0.117
13 | COc1cc(/C(F)=C/c2cccc(-c3cccc(NC(=O)c4nc5c(n4C)CCN(CCC46CCC(C(=O)O)(CC4)C6)C5)c3Cl)c2Cl)ncc1CN1CCC2(CCC2)C1 [Example 55, (Z)-4-(2-(2-((3′-(2-(5-((6-azaspiro[3.4]octan-6-yl)methyl)-4-methoxypyridin-2-yl)-2-fluorovinyl)-2,2′-dichloro-[1,1′-biphenyl]-3-yl)carbamoyl)-1-methyl-1,4,6,7-tetrahydro-5H-imidazo[4,5-c]pyridin-5-yl)ethyl)bicyclo[2.2.1]heptane-1-carboxylic acid] |  | 0.149
